Source: ChEMBL document CHEMBL5331071, “Structure-activity relationship study of amidobenzimidazole derivatives as stimulator of interferon genes (STING) agonists” (Eur J Med Chem, 2023)

Legend:
[1] = Stability in rat plasma assessed as residual of initial concentration at 1 hr; format: ADME, cell-free; conditions: read-out: Stability
THP1-Dual = assay: Cytotoxicity against human THP1-Dual habouring STING assessed as inhibition of cell growth by MTS assay; format: functional, cell-based
[2] = Cytotoxicity against human THP1-Dual KO-STING cells assessed as inhibition of cell growth by MTS assay; format: functional, cell-based
[3] = target: T1, Stimulator of interferon genes protein (Homo sapiens, UniProt Q86WV6); assay: Agonist activity at STING in human THP1-Dual cells incubated for 20 hrs by Quanti-luc reagent based assay; format: cell-based
T1 sequence (Q86WV6 whole entry): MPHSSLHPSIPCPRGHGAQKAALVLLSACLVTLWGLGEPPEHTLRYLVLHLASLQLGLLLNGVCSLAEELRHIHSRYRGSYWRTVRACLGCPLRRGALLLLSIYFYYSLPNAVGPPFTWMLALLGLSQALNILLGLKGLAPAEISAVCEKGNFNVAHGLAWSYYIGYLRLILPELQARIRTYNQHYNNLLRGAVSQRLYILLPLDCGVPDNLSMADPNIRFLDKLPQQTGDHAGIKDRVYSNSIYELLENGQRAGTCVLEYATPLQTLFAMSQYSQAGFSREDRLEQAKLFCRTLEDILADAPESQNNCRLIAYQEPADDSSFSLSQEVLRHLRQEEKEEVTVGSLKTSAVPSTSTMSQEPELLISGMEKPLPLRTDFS

[4] = target: T1, Stimulator of interferon genes protein; assay: Agonist activity at STING in human […] KO-STING cells incubated for 20 hrs by Quanti-luc reagent based assay; format: cell-based, THP1-Dual KO-STING

| SMILES | remaining at 1 h [1] [%] | EC50 [3] [µM] | EC50 [4] [µM] | IC50 (THP1-Dual) [µM] | IC50 [2] [µM] |
| --- | --- | --- | --- | --- | --- |
| CCn1nc(C)cc1C(=O)Nc1nc2cc(C(N)=O)cc(OC)c2n1C/C=C/Cn1c(C)nc2cc(C(N)=O)ccc21 |  | > 100 | > 100 | > 100 | > 100 |
| CCn1nc(C)cc1C(=O)Nc1nc2cc(C(N)=O)cc(OC)c2n1NCCCC(=O)NCc1ccc(OC)cc1 |  | 4.1 | > 100 | > 100 | > 100 |
| CCn1nc(C)cc1C(=O)Nc1nc2cc(C(N)=O)cc(OC)c2n1C/C=C/CNC1CCOCC1 |  | > 100 | > 100 | > 100 | > 100 |
| CCn1nc(C)cc1C(=O)Nc1nc2cc(C(N)=O)cc(OC)c2n1NCCCC(=O)NCc1cc(F)cc(F)c1 |  | 5.14 | > 100 | > 100 | > 100 |
| CCn1nc(C)cc1C(=O)Nc1nc2cc(C(N)=O)cc(OC)c2n1CCCN1CCC(NC(=O)c2ccc3ccccc3c2)CC1 |  | > 100 | > 100 | > 100 | > 100 |
| CCn1nc(C)cc1C(=O)Nc1nc2cc(C(N)=O)cc(OC)c2n1C/C=C/CNC(=O)Nc1ccc2ccccc2c1 |  | > 100 | > 100 | > 100 | > 100 |
| CCn1nc(C)cc1C(=O)Nc1nc2cc(C(N)=O)cc(OCC3CC3)c2n1NCCCC(=O)NCc1ccc(F)cc1 |  | 1.42 | > 100 | > 100 | > 100 |
| CCn1nc(C)cc1C(=O)Nc1nc2cc(C(N)=O)cc(OC)c2n1NCCCC(=O)NCc1ccc(-c2ccccc2)cc1 |  | 40.9 | > 100 | > 100 | > 100 |
| CCn1nc(C)cc1C(=O)Nc1nc2cc(C(N)=O)cc(OCCCOC)c2n1NCCCNC(=O)c1ccc2ccccc2c1 |  | 0.53 | > 100 | 10.6 | 14.8 |
| CCn1nc(C)cc1C(=O)Nc1nc2cc(C(N)=O)cc(OC)c2n1C/C=C/CNc1ncc(C(N)=O)cn1 |  | > 100 | > 100 | > 100 | > 100 |
| CCn1nc(C)cc1C(=O)Nc1nc2cc(C(N)=O)cc(OC)c2n1C/C=C/CNC(=O)c1cnc(C(F)(F)F)cn1 |  | > 100 | > 100 | > 100 | > 100 |
| CCn1nc(C)cc1C(=O)Nc1nc2cc(C(N)=O)cc(OC)c2n1C/C=C/CNC(=O)c1ccc2ncccc2c1 |  | > 100 | > 100 | > 100 | > 100 |
| CCn1nc(C)cc1C(=O)Nc1nc2cc(C(N)=O)cc(OC)c2n1C/C=C/CNC(=O)Cc1cnccn1 |  | > 100 | > 100 | > 100 | > 100 |
| CCn1nc(C)cc1C(=O)Nc1nc2cc(C(N)=O)cc(OC)c2n1NCCCC(=O)NCc1ccc(Cl)cc1 |  | 3.22 | > 100 | > 100 | > 100 |
| CCn1nc(C)cc1C(=O)Nc1nc2cc(C(N)=O)cc(OCCCN3CCOCC3)c2n1NCCCNC(=O)c1ccc2ccccc2c1 |  | 2.19 | > 100 | 18.6 | 28.1 |
| CCn1nc(C)cc1C(=O)Nc1nc2cc(C(N)=O)cc(OC)c2n1C/C=C/CNC(=O)c1ccc(C(F)(F)F)cc1 |  | > 100 | > 100 | > 100 | > 100 |
| CCn1nc(C)cc1C(=O)Nc1nc2cc(C(N)=O)cc(OC)c2n1NCCCNC(=O)Nc1ccc2ccccc2c1 |  | > 100 | > 100 | > 100 | > 100 |
| CCn1nc(C)cc1C(=O)Nc1nc2cc(C(N)=O)cc(OC)c2n1C/C=C/CNC(=O)c1cc(C(F)(F)F)cc(C(F)(F)F)c1 |  | > 100 | > 100 | > 100 | > 100 |
| CCn1nc(C)cc1C(=O)Nc1nc2cc(C(N)=O)cc(OC)c2n1C/C=C/CNC1CCC(N(C)C)CC1 (stereo not drawn) |  | > 100 | > 100 | > 100 | > 100 |
| CCn1nc(C)cc1C(=O)Nc1nc2cc(C(N)=O)cc(OC)c2n1CCCN1CCN(C(=O)c2ccc3ccccc3c2)CC1 |  | > 100 | > 100 | > 100 | > 100 |
| CCn1nc(C)cc1C(=O)Nc1nc2cc(C(N)=O)cc(OC)c2n1NCCCC(=O)NCc1ccccc1F |  | 4.17 | > 100 | > 100 | > 100 |
| CCn1nc(C)cc1C(=O)Nc1nc2cc(C(N)=O)cc(OC)c2n1C/C=C/CNC(=O)C1CCCCC1 |  | > 100 | > 100 | > 100 | > 100 |
| CCn1nc(C)cc1C(=O)Nc1nc2cc(C(N)=O)cc(OC)c2n1NCCCC(=O)NCc1ccc(F)cc1F |  | 3.57 | > 100 | > 100 | > 100 |

Continued, in another order:

| remaining at 1 h [1] [%] | EC50 [3] [µM] | EC50 [4] [µM] | SMILES | IC50 (THP1-Dual) [µM] | IC50 [2] [µM] |
| --- | --- | --- | --- | --- | --- |
| 36.4 |  |  | CCn1nc(C)cc1C(=O)Nc1nc2cc(C(N)=O)cc(OCCCOC)c2n1CCCNC(=O)OCc1ccccc1 |  |  |
|  | 0.93 | > 100 | CCn1nc(C)cc1C(=O)Nc1nc2cc(C(N)=O)cc(OC)c2n1CCCNC(=O)c1ccc2ccccc2c1 | 10.8 | > 100 |
|  | > 100 | > 100 | CCn1nc(C)cc1C(=O)Nc1nc2cc(C(N)=O)cc(OC)c2n1CCCN1CCC(C(=O)Nc2ccccc2)CC1 | > 100 | > 100 |
|  | 11.2 | > 100 | CCn1nc(C)cc1C(=O)Nc1nc2cc(C(N)=O)cc(OC)c2n1NCCCC(=O)N(C)Cc1ccccc1 | > 100 | > 100 |
|  | 9.83 | > 100 | CCn1nc(C)cc1C(=O)Nc1nc2cc(C(N)=O)cc(OC)c2n1CCCC(=O)Nc1ccc2ccccc2c1 | > 100 | > 100 |
|  | > 100 | > 100 | CCn1nc(C)cc1C(=O)Nc1nc2cc(C(N)=O)cc(OC)c2n1Cc1cn(Cc2ccc3ccccc3c2)nn1 | > 100 | > 100 |
|  | > 100 | > 100 | CCn1nc(C)cc1C(=O)Nc1nc2cc(C(N)=O)cc(OC)c2n1CCCNC(=O)c1ccccc1 | > 100 | > 100 |
|  | > 100 | > 100 | CCn1nc(C)cc1C(=O)Nc1nc2cc(C(N)=O)cc(OC)c2n1C/C=C/CNC(=O)Cc1ccccc1 | > 100 | > 100 |
|  | > 100 | > 100 | CCn1nc(C)cc1C(=O)Nc1nc2cc(C(N)=O)cc(OC)c2n1Cc1cn(CCc2ccccc2)nn1 | > 100 | > 100 |
|  | 9.81 | > 100 | CCn1nc(C)cc1C(=O)Nc1nc2cc(C(N)=O)cc(OC)c2n1CCCC(=O)Nc1ccccc1 | > 100 | > 100 |
|  | 47.1 | > 100 | CCn1nc(C)cc1C(=O)Nc1nc2cc(C(N)=O)cc(OC)c2n1C/C=C/CNC(=O)c1ccccc1 | > 100 | > 100 |
